According to patent publication US7855290B2, “Pyridine derivatives and pyrimidine derivatives (3)” (Eisai R&D Management Co., Ltd., priority 2005, dated 2010):

Key:
[1] = test system: Human gastric cancer cells (MKN-45); assay: Inhibitory activity against the proliferation of human gastric cancer cells (MKN-45); assay type: cell-based; details: 72 h, MKN-45, 1% FBS RPMI1640, 3 days, Cell Counting Kit-8
Experimental: Human gastric cancer cells (MKN-45) were suspended in a 1% FBS-containing RPMI1640 medium (purchased from Sigma). The cell suspension (1×10^4 cells/ml) was added in a 96-well plate for cell culture (purchased from NUNC, Production No. 167008) at 0.1 ml/well, and then cultured in a 5% CO2 incubator (37° C.) overnight. After the culture, each well was supplied with 0.1 ml of a test substance diluted with a 1% FBS-containing RPMI1640 medium, followed by culturing in a 5% CO2 incubator (37° C.) for 3 days. After the culture, each well was supplied with 10 μl of Cell Counting Kit-8 (purchased from DOJINDO, Production No. 343-07623), followed by incubation in a 5% CO2 incubator (37° C.) for about 1.5 hrs. After the incubation, using the Plate Reader MTP-500 (Corona Electric), the absorbance of each well was determined at a measurement wavelength of 450 nm and a reference wavelength of 660 nm.

[2] = target: T1, His6-HGFR (HGFR cytoplasmic domain) (Homo sapiens, UniProt P08581); assay: Inhibitory activity against HGFR tyrosine kinase activity (HTRF); assay type: biochemical; details: biotin-poly(GT), ATP, 30° C. 10 min
T1 construct: made in house; host or cells: Sf9 insect cells (Spodoptera frugiperda), baculovirus, pFastBac-HT vector
T1 sequence (P08581 956-1390 limits assumed): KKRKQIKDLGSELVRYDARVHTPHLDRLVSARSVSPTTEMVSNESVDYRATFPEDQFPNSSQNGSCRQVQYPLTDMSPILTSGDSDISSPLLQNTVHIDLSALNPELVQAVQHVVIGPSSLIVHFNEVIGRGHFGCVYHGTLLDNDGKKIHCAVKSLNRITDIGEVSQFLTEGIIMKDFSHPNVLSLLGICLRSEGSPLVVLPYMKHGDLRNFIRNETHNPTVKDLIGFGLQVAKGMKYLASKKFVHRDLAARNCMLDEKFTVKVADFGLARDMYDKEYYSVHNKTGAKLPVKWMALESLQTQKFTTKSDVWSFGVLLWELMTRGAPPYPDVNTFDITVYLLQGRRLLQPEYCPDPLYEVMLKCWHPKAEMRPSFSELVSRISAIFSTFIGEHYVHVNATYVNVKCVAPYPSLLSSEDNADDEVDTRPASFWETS
Source text: The cytoplasmic domain of HGFR (Genbank Accession No. J02958) is a 1.3 kb DNA fragment beginning with Lys974 and including a stop codon, and described by Park et al. (Proc. Natl. Acad. Sci. U.S.A. 84(18), 6379-6383, 1987). The DNA fragment was isolated from the human placental cDNA library (purchased from Clontech) by PCR (TaKaRa Ex Taq™ Kit, purchased from TaKaRa) using two kinds of primers (SEQ ID NO: 1,5′-[…]-3′ and SEQ ID NO: 2,5′-[…]-3′, purchased from Invitrogen). The DNA fragment was cloned into a baculovirus transplace vector (pFastBac™-HT (purchased from GIBCO BRL)) to produce a recombinant construct. […] EGFR was purchased from Sigma (Production No. E-2645).
To the suspension of Sf9 cells (3×10^8 cells) in SF-900II medium (purchased from Invitrogen) containing 2% FBS was added a solution of HGFR transfected baculovirus above (4 ml), followed by a shaking culture at 27° C. for 48 hrs. The cells infected with the HGFR transfected baculovirus were centrifuged at 1,000 rpm, 4° C. for 5 min to remove the supernatant. The precipitated infected cells were suspended in 80 ml of ice-cold PBS, and centrifuged at 1,000 rpm, 4° C. for 5 min to remove the supernatant. The precipitated infected cells were suspended in 40 ml of ice-cold Lysis Buffer (50 mM Tris-HCl (pH 8.5), 5 mM 2-mercaptoethanol, 100 mM KCl, 1 mM PMSF and 1% (v/v) NP-40). The suspension was centrifuged at 12,000 rpm, 4° C. for 30 min to provide a supernatant.
The supernatant was loaded onto an Ni-NTA agarose column (3 ml, purchased from Qiagen) equilibrated with 30 ml of Buffer A (20 mM Tris-HCl (pH 8.5), 5 mM 2-mercaptoethanol, 500 mM KCl, 20 mM imidazole and 10% (v/v) glycerol). The column was washed with 30 ml of Buffer A, 6 ml of Buffer B (20 mM Tris-HCl (pH 8.5), 5 mM 2-mercaptoethanol, 1 M KCl, and 10% (v/v) glycerol) and 6 ml of Buffer A in this order. Then, the column was eluted with 6 ml of Buffer C (20 mM Tris-HCl (pH 8.5), 5 mM 2-mercaptoethanol, 100 mM KCl, 100 mM imidazole, and 10% (v/v) glycerol) to provide a fraction. The fraction was entrapped in a dialysis membrane (purchased from Spectrum Laboratories), dialyzed at 4° C. overnight with 1 L of dialysis buffer (20 mM Tris-HCl (pH 7.5), 10% (v/v) glycerol, 1 mM dithiothreitol, 0.1 mM Na3VO4 and 0.1 mM EGTA), and stored at −80° C. until used. […] The VEGFR2 cytoplasmic domain, the FGFR1 cytoplasmic domain, and the PDGFRβ cytoplasmic domain were fused with six histidine at the N terminus by the similar method to produce respective recombinant proteins (His6-VEGFR2, His6-FGFR1, and His6-PDGFRβ).
To each well of a 96-well round plate (purchased from NUNC, Production No. 163320) were added 10 μl of a solution for kinase reaction (200 mM Hepes (pH 7.4), 80 mM MgCl2, 16 mM MnCl2 and 2 mM Na3VO4), 250 ng of biotinylated poly(Glu4: Tyr1) (biotin-poly(GT), purchased from Japan Schering) (6 μl, 15-fold diluted with distilled water), 30 ng of His6-HGFR (10 μl, 60-fold diluted with 0.4% BSA) and a test substance dissolved in dimethylsulfoxide (4 μl, 100-fold diluted with 0.1% BSA) to mess up to 30 μl. To the well was added 10 μl of 4 μM ATP (purchased from Sigma) diluted with distilled water to incubate at 30° C. for 10 min, followed by adding 10 μl of 500 mM EDTA (pH 8.0) (purchased from Wako Pure Chemicals) to provide a kinase reaction solution.
The tyrosine-phosphorylated biotin-poly(GT) was detected using the Homogenous Time-Resolved Fluorescence (HTRF) method (Analytical Biochemistry, 269, 94-104, 1999).

SMILES | IC50 [1] [nM] | IC50 [2] [nM]
CN1CCC(N(C)C(=O)Nc2cc(Oc3ccc(NC(=O)C4(C(=O)Nc5ccc(F)cc5)CC4)c(F)c3)ccn2)CC1 [Example 3, N-(2-Fluoro-4-{[2-({[methyl(1-methylpiperidin-4-yl)amino]carbonyl}amino)pyridin-4-yl]oxy}phenyl)-N′-(4-fluorophenyl)cyclopropane-1,1-dicarboxamide] | 15 | 39
CN1CCN(C2CCN(C(=O)Nc3cc(Oc4ccc(NC(=O)C5(C(=O)Nc6ccc(F)cc6)CC5)cc4)ccn3)CC2)CC1 [Example 32, N-(4-Fluorophenyl)-N′-(4-{[2-({[4-(4-methylpiperazin-1-yl)piperidin-1-yl]carbonyl}amino)pyridin-4-yl]oxy}phenyl)cyclopropane-1,1-dicarboxamide] | 27 | 50
CN1CC(N2CCN(C(=O)Nc3cc(Oc4ccc(NC(=O)C5(C(=O)Nc6ccc(F)cc6)CC5)c(F)c4)ccn3)CC2)C1 [Example 17] | 14 | 48
O=C(Nc1cc(Oc2ccc(NC(=O)C3(C(=O)Nc4ccc(F)cc4)CC3)c(F)c2F)ccn1)N1CC(O)C1 [Example 106, N-[2,3-Difluoro-4-[(2-{[(3-hydroxyazetidin-1-yl)carbonyl]amino}pyridin-4-yl)oxy]phenyl}-N′-(4-fluorophenyl)cyclopropane-1,1-dicarboxamide] | 46 | 16
CN1CCC(N2CCN(C(=O)Nc3cc(Oc4ccc(NC(=O)C5(C(=O)Nc6ccc(F)cc6)CC5)c(F)c4)ccn3)CC2)CC1 [Example 16, N-(2-Fluoro-4-{[2-({[4-(1-methylpiperidin-4-yl)piperazin-1-yl]carbonyl}amino)pyridin-4-yl]oxy}phenyl)-N′-(4-fluorophenyl)cyclopropane-1,1-dicarboxamide] | 17 | 64
O=C(Nc1cc(Oc2ccc(NC(=O)C3(C(=O)Nc4ccc(F)cc4)CC3)cc2)ccn1)N1CCC(CN2CCCC2)CC1 [Example 29, N-(4-Fluorophenyl)-N′-(4-{[2-({[4-(pyrrolidin-1-ylmethyl)piperidin-1-yl]-carbonyl}amino)pyridin-4-yl]oxy}phenyl)cyclopropane-1,1-dicarboxamide] | 50 | 63
CN1CCN(C(=O)Nc2cc(Oc3ccc(NC(=O)C4(C(=O)Nc5ccc(F)cc5)CC4)c(F)c3)ccn2)CC1 [Example 64, N-{2-Fluoro-4-[(2-{[(1-methylpiperazin-4-yl)carbonyl]amino}pyridin-4-yl)oxy]phenyl}-N′-(4-fluorophenyl)cyclopropane-1,1-dicarboxamide] | 57 | 58
O=C(Nc1cc(Oc2ccc(NC(=O)C3(C(=O)Nc4ccc(F)cc4)CC3)cc2)ccn1)N1CCOCC1 [Example 68, N-(4-Fluorophenyl)-N′-[4-({2-[(morpholin-4-ylcarbonyl)amino]pyridin-4-yl}oxy)phenyl]cyclopropane-1,1-dicarboxamide] | 134 | 23
O=C(Nc1cc(Oc2ccc(NC(=O)C3(C(=O)Nc4ccc(F)cc4)CC3)cc2F)ncn1)N1CCC(N2CCC2)CC1 [Example 34, N-{4-[(6-{[(4-Azetidin-1-ylpiperidin-1-yl)carbonyl]amino}pyrimidin-4-yl)oxy]-3-fluorophenyl}-N′-(4-fluorophenyl)cyclopropane-1,1-dicarboxamide] | 190 | 73
O=C(Nc1cc(Oc2ccc(NC(=O)C3(C(=O)Nc4ccc(F)cc4)CC3)cc2F)ccn1)N1CCCC1 [Example 66, N-(4-Fluorophenyl)-N′-[3-fluoro-4-({2-[(pyrrolidin-1-ylcarbonyl)amino]pyridin-4-yl}oxy)phenyl]cyclopropane-1,1′-dicarboxamide] | 31 | 20
CN(C)CC1CCN(C(=O)Nc2cc(Oc3ccc(NC(=O)C4(C(=O)Nc5ccc(F)cc5)CC4)c(F)c3)ccn2)CC1 [Example 8, N-[4-({2-[({4-[(Dimethylamino)methyl]piperidin-1-yl}carbonyl)amino]pyridin-4-yl}oxy)-2-fluorophenyl]-N′-(4-fluorophenyl)cyclopropane-1,1-dicarboxamide] | 20 | 48
CN(C)CCN1CCN(C(=O)Nc2cc(Oc3ccc(NC(=O)C4(C(=O)Nc5ccc(F)cc5)CC4)cc3F)ccn2)CC1 [Example 7, N-[4-({2-[({4-[2-(Dimethylamino)ethyl]piperazin-1-yl}carbonyl)amino]pyridin-4-yl}oxy)-3-fluorophenyl]-N′-(4-fluorophenyl)cyclopropane-1,1-dicarboxamide] | 18 | 51
CN(C)CCN1CCC(N(C)C(=O)Nc2cc(Oc3ccc(NC(=O)C4(C(=O)Nc5ccc(F)cc5)CC4)c(F)c3)ccn2)CC1 [Example 25, N-(4-{[2-({[{1-[2-(Dimethylamino)ethyl]piperidin-4-yl}(methyl)amino]carbonyl}amino)pyridin-4-yl]oxy}-2-fluorophenyl)-N′-(4-fluorophenyl)cyclopropane-1,1-dicarboxamide] | 19 | 85
CN1CCN(C2CCN(C(=O)Nc3cc(Oc4cc(F)c(NC(=O)C5(C(=O)Nc6ccc(F)cc6)CC5)cc4F)ncn3)CC2)CC1 [Example 101, N-(2,5-Difluoro-4-{[4-({[4-(4-methylpiperazin-1-yl)piperidin-1-yl]carbonyl}amino)pyrimidin-6-yl]oxy}phenyl)-N′-(4-fluorophenyl)cyclopropane-1,1-dicarboxamide] | 16 | 72
CN(C)C1CCN(C(=O)Nc2cc(Oc3cc(F)c(NC(=O)C4(C(=O)Nc5ccc(F)cc5)CC4)cc3F)ncn2)CC1 [Example 102, N-(4-{[4-({[4-(Dimethylamino)piperidin-1-yl]carbonyl}amino)pyrimidin-6-yl]oxy}-2,5-difluorophenyl)-N′-(4-fluorophenyl)cyclopropane-1,1-dicarboxamide] | 40 | 72
CCN(CC)CCCNC(=O)Nc1cc(Oc2ccc(NC(=O)C3(C(=O)Nc4ccc(F)cc4)CC3)cc2C)ccn1 [Example 45, N-[4-({2-[({[3-(Diethylamino)propyl]amino}carbonyl)amino]pyridin-4-yl}oxy)-3-methylphenyl]-N′-(4-fluorophenyl)cyclopropane-1,1-dicarboxamide] | 500 | 240
